Data on 13 molecules can be found in ChEMBL document CHEMBL1201862, “PubChem BioAssay data set” (2004).

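In this assay, cells in 96-well plates receive the compound at five concentrations for 48 hours. Endpoints are linearly interpolated between the surrounding concentrations. GI50 is the concentration that inhibits growth by half.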 Active and inactive are the calls of the source. No stated cut-off is given here; in the data, active = GI50 up to about 1.1 µM and inactive = higher.

Assay in all cases: growth of human tumour cells (NCI), 48 h
Test [1] has as its system SK-OV-3.
Test [2] deals with 786-0.
In test [3] the test system is HOP-62.
For test [4], the system named is DMS-114.
The subject of test [5] is RPMI-8226.
For test [6], the system named is RXF 393.
Test [7] relates to SNB-78.
Test [8] has as its system HCT-116.
The test system of test [9] is HCT-15.
For test [10], the system named is IGROV-1.
The test system of test [11] is NCI-H226.
For test [12], the system named is OVCAR-8.
The subject of test [13] is SW-620.
For test [14], the system named is EKVX.
For test [15], the system named is M19-MEL.
Test [16] has as its system NCI-H23.
The test system of test [17] is SK-MEL-2.

As for `CC(C)CCCC(C)[C@H]1CCC2[C@H]3C(CC[C@@]21C)[C@@]1(C)CCC=C[C@]12C[C@@H]2[C@@H]3O` (stereo partly drawn), the GI50 in [1], in test [2], in test [3], in test [4], in test [5] and in test [6] was > 100 µM (inactive) in each case. Moreover, the GI50 is > 100 µM (inactive) in [7]; > 100 µM (inactive) in test [8]; greater than 100 µM in [9]; > 100 µM (inactive) in test [10]; > 100 µM (inactive) in test [11]; > 100 µM (inactive) in [12]. The GI50 in test [13] and in test [14] was > 100 µM (inactive) each time.
For the molecule `Cc1ccc(/C=C/C(=O)C(C)C)cc1`, the GI50 in test [1] was 74.3 µM (inactive); in test [2] it was 55 µM (inactive); in test [15], 64 µM (inactive); in [4], 42.2 µM (inactive); in test [5], 27.9 µM (inactive); in test [6] it was 39.8 µM (inactive). The GI50 was 46.6 µM (inactive) in test [16]; 64.7 µM (inactive) in test [7]; 92 µM (inactive) in test [10]; 96.8 µM (inactive) in test [12]; 36.3 µM (inactive) in [17]; 47.5 µM (inactive) in test [13]. In addition, in test [14], the GI50 was > 100 µM (inactive).
Regarding `CCOC(=O)c1cc(C(=O)O)c(=O)n2c1[nH]c1ccccc12`, the GI50 in test [1] was 78.7 µM (inactive); in test [2], > 100 µM (inactive); in [3], > 100 µM (inactive); in test [15] it was > 100 µM (inactive); in test [4], > 100 µM (inactive); in [5], 46.3 µM (inactive). Moreover, the GI50 in [6] was 24.3 µM (inactive); in test [16] it was 26.9 µM (inactive); in test [7], > 100 µM (inactive); in test [8], 40.7 µM (inactive); in [9], 46.7 µM; in test [10] it was 88.9 µM (inactive). Moreover, the GI50 in [12], in test [17], in [13] and in test [14] was > 100 µM (inactive) in each case.
On to `Cn1c(=O)c(C(c2ccccc2)c2c(O)c3ccccc3n(C)c2=O)c(O)c2ccccc21`, for which the GI50 in [1], in test [2], in test [15], in test [4], in test [5] and in test [6] was > 100 µM (inactive) each time. The GI50 in test [16] is > 100 µM (inactive); in test [7] it was > 100 µM (inactive); in test [8], > 100 µM (inactive); in test [9] it was greater than 10 µM; in test [10] it was > 100 µM (inactive); in [11] it was 0.0283 µM (active). Besides, the GI50 in test [12], in test [17], in test [13] and in test [14] was > 100 µM (inactive) throughout.
For `NC(=O)NCc1c(C(N)=O)ncn1Cc1ccccc1`, the GI50 in test [1], in [2], in test [3], in [15], in test [4] and in test [5] was > 100 µM (inactive) each time. The GI50 in test [6] is > 100 µM (inactive); in test [16], > 100 µM (inactive); in test [7], > 100 µM (inactive); in test [8] it was > 100 µM (inactive); in test [9] it was greater than 100 µM; in test [10], > 100 µM (inactive). Further, the GI50 in test [12], in test [13] and in test [14] was > 100 µM (inactive) in each case.
Consider `Cc1cc(Br)cc(C)c1NC(=O)C(=O)CC(=O)c1sc(-n2nc(-c3ccccc3)cc2-c2ccccc2)nc1C`, for which the GI50 in [1], in [2], in [3], in test [15], in test [4] and in test [5] was > 100 µM (inactive) in each case. Moreover, the GI50 in test [6] was > 100 µM (inactive); in test [16], > 100 µM (inactive); in test [7], > 100 µM (inactive); in test [8] it was > 100 µM (inactive); in test [9], greater than 100 µM; in [10], > 100 µM (inactive). Moreover, the GI50 in test [11], in test [12], in test [13] and in test [14] was > 100 µM (inactive) each time.
Regarding `S=C1NCCN1`, the GI50 in test [1], in test [2], in test [3], in test [15], in test [4] and in test [5] was > 100 µM (inactive) in each case. Besides, the GI50 in [16] is > 100 µM (inactive); in [7], > 100 µM (inactive); in test [8], > 100 µM (inactive); in [9], greater than 100 µM; in test [10] it was > 100 µM (inactive); in test [11] it was > 100 µM (inactive). Moreover, the GI50 in test [12], in test [17], in test [13] and in test [14] was > 100 µM (inactive) throughout.
Turning to `CC1(S)CC2C(CC1Sc1ccccc1)C2(C)C` (stereo not drawn), the GI50 in [1], in test [2], in [15], in test [4], in test [5] and in test [16] was > 100 µM (inactive) throughout. The GI50 in [7] is > 100 µM (inactive); in test [8], > 100 µM (inactive); in test [9], greater than 100 µM; in test [10] it was > 100 µM (inactive); in test [11] it was > 100 µM (inactive); in test [12] it was > 100 µM (inactive). The GI50 in [17] and in test [14] was > 100 µM (inactive) throughout.
With `CCOC(=O)Cc1c(Cc2[nH]c(C(=O)OCc3ccccc3)c(CC(=O)OCC)c2CC(=O)OCC)[nH]c(C(=O)OCc2ccccc2)c1CC(=O)OCC`, the GI50 in [1], in test [2], in test [3], in test [15], in [4] and in test [5] was > 100 µM (inactive) each time. Further, the GI50 in [7] was > 100 µM (inactive); in test [8], > 100 µM (inactive); in test [9], greater than 100 µM; in [10], > 100 µM (inactive); in test [12], > 100 µM (inactive); in test [13], > 100 µM (inactive).
For the molecule `O=C1OC(Cl)C(N=P(c2ccccc2)(c2ccccc2)c2ccccc2)=C1Cl` (stereo not drawn), the GI50 in test [1] is > 100 µM (inactive); in test [2], 80.4 µM (inactive); in test [3] it was > 100 µM (inactive); in [15] it was > 100 µM (inactive); in test [4], > 100 µM (inactive); in [5] it was > 100 µM (inactive). The GI50 in test [16] was > 100 µM (inactive); in test [7] it was 37.9 µM (inactive); in test [8] it was > 100 µM (inactive); in test [10], > 100 µM (inactive); in [11], > 100 µM (inactive); in test [12], > 100 µM (inactive). The GI50 in test [17], in [13] and in [14] was > 100 µM (inactive) each time.
As for `CN(C)CCNc1nc(-c2cccs2)cc(-c2cccs2)n1`, the GI50 in test [1] is > 10 µM (inactive); in [2] it was 15.2 µM (inactive); in [3], 18.7 µM (inactive); in test [4] it was 8.73 µM (inactive); in test [6], 14.6 µM (inactive); in test [16], 10.5 µM (inactive). Moreover, the GI50 in [7] was 16.9 µM (inactive); in test [8], 11.3 µM (inactive); in test [9], 15.9 µM; in [10], 24.4 µM (inactive); in [11], 15.9 µM (inactive); in test [12], 9.84 µM (inactive). Besides, the GI50 was 16.8 µM (inactive) in test [17] and 13.9 µM (inactive) in test [13].
As for `Cc1cccc2cc3cccc(C(=O)NCCN(C)C)c3nc12`, the GI50 in test [1] is 0.138 µM (active); in test [2] it was 0.129 µM (active); in test [3], 0.0745 µM (active); in test [15] it was 0.157 µM (active); in [4], 0.115 µM (active); in test [6], 0.269 µM (active). For the same molecule, the GI50 in [16] is 0.171 µM (active); in test [7], 0.614 µM (active); in test [8], 0.0354 µM (active); in test [9], 0.0993 µM; in test [10], 0.38 µM (active); in test [11], 0.0638 µM (active). For the same molecule, the GI50 in test [12] was 0.0925 µM (active); in test [17], 0.579 µM (active); in test [13], 0.0394 µM (active); in [14], 0.362 µM (active).
As for `C#CCN(N=O)C(=O)NCCCCC(NC(C)=O)C(=O)NCc1ccccc1` (stereo not drawn), the GI50 in [1] is > 100 µM (inactive); in [2] it was > 100 µM (inactive); in [3] it was > 100 µM (inactive); in test [15], > 100 µM (inactive); in [4], > 100 µM (inactive); in test [5], 51.2 µM (inactive). Further, the GI50 is > 100 µM (inactive) in [6]; > 100 µM (inactive) in test [16]; > 100 µM (inactive) in [7]; > 100 µM (inactive) in test [8]; greater than 100 µM in test [9]; > 100 µM (inactive) in test [10]. The GI50 in [11], in test [12], in [13] and in test [14] was > 100 µM (inactive) in each case.
